The text below walks through data of US20250295627A1 (Leibniz-Institut Fuer Neurobiologie, priority 2022, published 2025).

In one series the test system is GluA1 AMPA-receptors. Nature of the series: Synaptic surface expression of GluA1 AMPA-receptors in hippocampal neurons. The format is cell-based, rat. The note with it: 5 μM Nitarsone with 500 nM Aβ1-42, 48 h. As to the method:
Hippocampal and cortical cultures were prepared from Wistar rat embryos (E18) of mixed sex as described previously (Spilker et al., 2016). Briefly, dissected were digested for 15 min with trypsin at 37° C. Neurons were plated on plastic 12-well dishes (Greiner) on glass coverslips coated with poly-L-lysine (Sigma-Aldrich) at a density of 60 000 cells/well in DMEM medium (Gibco, Thermo Fisher Scientific) supplemented with 10% FCS, 1× penicillin/streptomycin, and 2 mM glutamine. After 1 h incubation (at the 37° C., 5% CO2, 95% humidity) cells were kept in BrainPhys medium supplemented with 1% SM1 (Stemmcell Technologies), 0.5 mM Glutamine (Gibco) at 37° C., 5% CO2 and 95% humidity. […]
For quantitation of nuclear staining intensity (pCREB or CREB) somatic regions were sequentially scanned using the 63× objective (Leica) in both: Leica TCS SP8-STED and Leica TCS SP5 systems. […] Unprocessed images were analysed using Fiji/ImageJ software (Schindelin et al., 2012). For visualization of the quantified channel a fire look-up table (LUT) was used. Synaptic density was quantified in secondary dendrites using Fiji/ImageJ (Schindelin et al., 2012). […] Intensity of the GluA1 channel was measured in ROIs defined by a Shank3 mask as a readout for surface AMPAR expression.

A further series relates to TBA2.1 mice. The series can be described thus: Neuronal loss (NeuN-positive cells) in CA1 after oral Nitarsone. The format is in vivo, mouse. To be noted: versus vehicle-treated littermates. As to the method:
Animals were anesthetized with ketamine/xylazine (Medistar) and transcardially perfused with 0.9% saline followed by 4% PFA. The brains were post-fixed in 4% PFA in PBS overnight, followed by immersion in 0.5 M sucrose for 24 h and then 1M sucrose for another 1 to 2 days or until the brains were sunken down. The brains were snap-frozen and cut into 35 μm thick coronal cryosections (Leica CM3050S, Leica-Microsystems). The sections were blocked in a buffer (0.3% TX-100, 10% NGS in PBS) for 30 min at RT, and incubated with primary antibodies diluted in the blocking solution, overnight at 4° C. Secondary antibodies were applied for 2 h at RT. Sections were counterstained with DAPI and mounted in Mowiol 4-88 (Merck Chemicals). For the detection of Aβ, the heat-based antigen retrieval method was used. […]
All quantifications were done within the distal CA1 region of the hippocampus. […] CREB and pCREB immunoreactivity of every single nucleus in a 100 μm stretch was measured in arbitrary units of pixel intensity. […] The neuronal loss was quantified based on NeuN staining (the number of neurons/CA1 length). For the quantification of microglia and astrocytes the number of cells based on overlaid DAPI and Iba-1 or GFAP signal was quantified within the rectangular ROI. Aβ plaques were counted in the region where the neuronal loss was quantified.

Series [1] relates to TBA2.1 and 5×FAD mice. Nature of the series: Synaptic density in stratum lacunosum moleculare of CA1 after oral Nitarsone. The format is in vivo, mouse. As to the method: Animals were anesthetized with ketamine/xylazine (Medistar) and transcardially perfused with 0.9% saline followed by 4% PFA. The brains were post-fixed in 4% PFA in PBS overnight, followed by immersion in 0.5 M sucrose for 24 h and then 1M sucrose for another 1 to 2 days or until the brains were sunken down. The brains were snap-frozen and cut into 35 μm thick coronal cryosections (Leica CM3050S, Leica-Microsystems). The sections were blocked in a buffer (0.3% TX-100, 10% NGS in PBS) for 30 min at RT, and incubated with primary antibodies diluted in the blocking solution, overnight at 4° C. Secondary antibodies were applied for 2 h at RT. Sections were counterstained with DAPI and mounted in Mowiol 4-88 (Merck Chemicals). For the detection of Aβ, the heat-based antigen retrieval method was used. For anti-Aβ staining, following permeabilization, brain sections were immersed into […] sodium citrate solution (Fluka, pH=9) for 30 min at 80° C. Imaging of nuclear pCREB/CREB immunoreactivities in cryosections was performed using a Leica TCS SP5 system (Leica-Microsystems). Images were acquired sequentially with a HCX ApoL20×/1.0 water objective, optical zoom 4. Sections were imaged with constant laser/detector settings along the z-axis with 400 nm step in a 512×512 pixel format.
. For TBA2.1 mice (both sexes), treatment started at the age of 4 weeks. […]

The subject of series [2] is TBA2.1 and 5×FAD mice. The series can be described thus: Novel object recognition and location. The format is in vivo, mouse. The source says:
. For TBA2.1 mice (both sexes), treatment started at the age of 4 weeks. The animals were group housed and force fed for 4 weeks. […] Treatment in 5×FAD male mice started at the age of 12 weeks. Here, animals were single housed right away and given a choice between voluntary and forced feeding. […] During the course of the 7th week of treatment, animals were either subjected to perfusion to obtain their brains for subsequent immunohistochemistry or they were culled to obtained native brains for electrophysiological recordings.
The hippocampus-dependent memory was assessed using a novel object location and novel object recognition tasks. Assays were performed as described elsewhere (Andres-Alonso et al., 2019). Briefly, training and testing were done in an open field square arena made out of plastic (50 cm×50 cm). The mice were habituated in the empty arena for 20 min. Subsequently, 2 identical objects were introduced to the maze and the animals could explore the objects in 2 training session, 20 min each. 2 h afterwards, in the memory test phase, one object was replaced with an unfamiliar, unknown object (novel object recognition). Afterwards, the location of one object was changed ([…]). During all sessions, the amount of time the animals explored the objects was recorded, and a discrimination index was calculated using the formula DI=[(Tnew−Tfamiliar)/(Tnew+Tfamiliar)]*100. The arena was cleaned with 5% ethanol before and after each animal was tested.

The test system of series [3] is pCREB. Nature of the series: pCREB in primary cortical cultures overexpressing poly(GA) aggregates (ALS model). The format is cell-based, rodent. The note with it: 5 µM nitarsone, 48 hours.
Series [4] relates to pCREB. Nature of the series: pCREB in motor neurons differentiated from hiPSC (ALS model). The format is cell-based, human. The note with it: hiPSC-derived motor neurons, treated at day in vitro 56.
For series [5] the following is noted: estimated life-long consumption of turkey meat; cited from earlier work.

For the molecule `O=[N+]([O-])c1ccc([As](=O)(O)O)cc1` [Nitarsone, (4-nitrophenyl) arsonic acid], the “downscaling of synaptic surface expression of GluA1 AMPA-receptors” value in the series with GluA1 AMPA-receptors is “significantly attenuated”. The “early neuronal cell loss” value in the series on TBA2.1 mice is “reduced”. The “synapse loss in the stratum lacunosum moleculare” value is given as “clearly reduced synapse loss” with TBA2.1 and 5×FAD mice [1] (5×FAD mice); “clearly reduced synapse loss” with TBA2.1 and 5×FAD mice [1] (TBA2.1 mice). Besides, the “memory in novel location recognition task” value is on record as “rescued memory” in the series with TBA2.1 and 5×FAD mice [2] (5×FAD mice); “rescued memory” in the series on TBA2.1 and 5×FAD mice [2] (TBA2.1 mice). The “memory in novel object recognition task” value in the series with TBA2.1 and 5×FAD mice [2] (5×FAD mice) is reported as “rescued memory”; in the series with TBA2.1 and 5×FAD mice [2] (TBA2.1 mice) it was “rescued memory”. Besides, in the series with pCREB [3] (control cells (poly (GA)-negative)), the pCREB nuclear immunoreactivity entry is given as “do not display any change”. In addition, in the series on pCREB [3] (poly-(GA) 175-EGFP-transduced cells), the “poly (GA)-induced decrease in pCREB nuclear immunoreactivity” value is on record as “completely rescued”. Further, the “impairment of CREB function” value with pCREB [4] is on record as “rescues the impairment of CREB function”. Further, in series [5], the “increased lifetime risk of developing cancer” value was 0.00031%.
